The values that follow come from patent publication US10508088B2, “Methods using HDAC11 inhibitors” (FORMA Therapeutics, Inc., priority 2016, dated 2019).

For one assay, the target named is HDAC1 (Homo sapiens (Human), UniProt Q13547). In words: HDAC inhibition assay, electrophoretic mobility shift (Nanosyn). Particulars: read-out: HDAC Biochemical IC50 HDAC1. How it is done: (§1) This example describes in vitro inhibition properties of exemplary HDAC11 inhibitors for various HDACs. HDAC inhibition assays were performed using an electrophoretic mobility shift assay at Nanosyn, Inc. (Santa Clara, Calif.). Full length human recombinant HDAC proteins were expressed in the baculoviral system and purified by affinity chromatography. A human recombinant HDAC3 was co-expressed with nuclear receptor corepressor (Ncor2). The following peptide substrates were used: FAM-RHKK(Ac)-NH2 for HDAC3, HDAC6 and HDAC8; FITC-H3K27(Ac)-NH2 for HDAC1, HDAC2 and HDAC10; FAM-RHKK(tri-fluor-Ac)-NH2 for HDAC4, HDAC5, HDAC7, HDAC9 and HDAC11. Reactions consisting of compound, enzyme, and substrate were performed in reaction buffer (comprised of 100 mM HEPES, pH7.5, 25 mM KCl, 0.1% bovine serum albumin, 0.01% Triton X-100) at 25° C. and quenched by the addition of termination buffer (100 mM HEPES, pH7.5, 0.01% Triton X-100, 0.05% SDS). The fluorescence intensity of the electrophoretically separated de-acetylated product and substrate peptide were measured and analyzed using the LabChip® 3000 microfluidic electrophoresis instrument (Perkin Elmer/Caliper Life Sciences). The IC50 values of inhibitors were determined by fitting the %-inhibition curves with 4 parameter dose-response model using XLfit 4 software (IDBS).
In general terms: In EMSA bound probe runs differently from free probe, usually more slowly.

The target of the next assay is HDAC10 (Homo sapiens (Human), UniProt Q969S8). The assay is described as above. The following applies: read-out: HDAC Biochemical IC50 HDAC10. How it is done:
as §1

The next assay deals with HDAC2 (Homo sapiens (Human), UniProt Q92769). Described as above. Particulars: read-out: HDAC Biochemical IC50 HDAC2. How it is done: as §1
In assay [1] the target is HDAC3 co-expressed with nuclear receptor corepressor (Ncor2) (Homo sapiens (Human), UniProt O15379). The description is as above. The following applies: read-out: HDAC Biochemical IC50 HDAC3. The method, then:
as §1

Another assay concerns the target HDAC4 (Homo sapiens (Human), UniProt P56524). The assay is described as above. Particulars: read-out: HDAC Biochemical IC50 HDAC4. The method, then:
as §1

A further assay concerns the target HDAC5 (Homo sapiens (Human), UniProt Q9UQL6). The assay is described as above. The following applies: read-out: HDAC Biochemical IC50 HDAC5. How it is done: as §1
For a further assay, the target named is HDAC6 (Homo sapiens (Human), UniProt Q9UBN7). The description is as above. The following applies: read-out: HDAC Biochemical IC50 HDAC6. How it is done:
as §1

The next assay has as its target HDAC7 (Homo sapiens (Human), UniProt Q8WUI4). Described as above. The following applies: read-out: HDAC Biochemical IC50 HDAC7. The method, then:
as §1

In another assay the target is HDAC8 (Homo sapiens (Human), UniProt Q9BY41). The assay is described as above. Particulars: read-out: HDAC Biochemical IC50 HDAC8. How it is done:
as §1

Another assay has as its target HDAC9 (Homo sapiens (Human), UniProt Q9UKV0). The assay is described as above. Particulars: read-out: HDAC Biochemical IC50 HDAC9. How it is done: as §1
The target of the next assay is HDAC11 (Homo sapiens (Human), UniProt Q96DB2). Described as above. It counts as biochemical. Particulars: for selectivity over HDACs 1-10: HDAC11 versus HDACs 1-10; for IC50: read-out: HDAC Biochemical IC50 HDAC11. How it is done:
as §1

The subject of assay [2] is A549 side population stem-like cells (KRAS mutation). In words: Sphere formation assay with stem-like side population NSCLC cells. It counts as cell-based. The following applies: A549 SP cells, 0.5-5.0 μM, Day 10. The method, then:
(§2) In order to investigate the role of HDAC11 in the self-renewal of stem-like cancer cells, sphere formation assays were conducted with NSCLC side population (SP) stem-like cells. A549 and NCI-H1650 cells were obtained from the ATCC. Asynchronously growing A549 or NCI-H1650 cells were washed once with phosphate buffered saline (PBS) and harvested using Accutase solution (Sigma Aldrich) and resuspended in DMEM-F12K medium (Gibo, Life Technologies) with 2% fetal bovine serum (FBS) at 1×10^6 cells/ml density. The cells were incubated with 4 μg/ml of Hoechst 33342 dye (Life Technologies) for 90 min at 37° C. in the presence or absence of 1 μM Fumitremorgin C (Sigma-Aldrich) which was used as a control sample to set the gate during sorting. The Hoechst stained cells were sorted using the BD FACSAria cell sorter. The sorted SP cells were plated in 96-well ultra-low adherent plate (Corning Inc) at the cell density of 1000 cells/100 μl/well in stem cell selective medium (DMEM:F12K supplemented with N2 supplement, 10 ng/mL epidermal growth factor (EGF) and 10 ng/ml basic fibroblast growth factor (bFGF) (Sigma-Aldrich) at 37° C. for 7-10 days. The spheres were observed and acquired using EVOS FL microscope system (Life Technologies Inc., USA). The numbers of spheres greater than or equal to 50 μm were counted. To study the effect of the HDAC11 inhibitors, the appropriate concentrations of the compounds were added to the wells on Day 0 and Day 5 and the image acquisition and analysis of the spheres were performed on Day 10. The sphere formation assays were performed twice with triplicates of each treatment in every assay.

For assay [3], the system named is H1650 side population stem-like cells (EGFR mutation). The description is as above. Format: cell-based. The following applies: H1650 SP cells, 0.5-5.0 μM, Day 10. How it is done: as §2
Another assay concerns A549 cells. In words: Cell proliferation assay with combination treatment (MTT). Format: cell-based. The following applies: A549, combination with GDC-0449 (Vismodegib) or BMS-833923, 96 hours. How it is done: (§3) Selective HDAC11 inhibitors may be useful in combination with other targeted agents, including Jak2 inhibitors and Smoothened inhibitors. The effect of combination with the Smoothened inhibitors GDC-0449 (Vismodegib) and BMS-833923 was tested in lung cancer cell lines. A549 and NCI-H2170 cells were obtained from the ATCC. H2170 is a squamous carcinoma cell line. Cell viability was assessed using MTT reagent (Thiazolyl Blue Tetrazolium Bromide) (Sigma-Aldrich). The cells were grown in 96-well plates at a density of 3000-5000 cells/well in triplicates. The HDAC11 inhibitors were added to the adherent cells at different concentrations and treatment was carried out for 96 hours. After treatments, the cells were incubated with the 1 mg/mL MTT reagent at 37° C. for 1 hour. The reaction was terminated with DMSO that solubilizes the formazan product formed. Absorbance at 590 nm was recorded in a plate reader.

The subject of a further assay is NCI-H2170 cells. The description is as above. It counts as cell-based. The following applies: H2170, combination with GDC-0449 (Vismodegib) or BMS-833923, 96 hours. How it is done: as §3

Sequence of HDAC11 (Q96DB2 whole entry): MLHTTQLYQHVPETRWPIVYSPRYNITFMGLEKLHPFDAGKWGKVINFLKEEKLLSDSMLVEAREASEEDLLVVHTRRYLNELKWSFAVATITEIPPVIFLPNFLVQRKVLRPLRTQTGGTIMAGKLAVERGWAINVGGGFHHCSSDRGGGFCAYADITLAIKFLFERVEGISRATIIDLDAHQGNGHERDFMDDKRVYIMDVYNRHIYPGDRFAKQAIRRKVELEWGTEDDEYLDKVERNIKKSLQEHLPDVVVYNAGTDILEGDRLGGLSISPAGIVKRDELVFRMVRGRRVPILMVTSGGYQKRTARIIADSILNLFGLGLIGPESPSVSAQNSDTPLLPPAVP
Sequence of HDAC5 (Q9UQL6 whole entry): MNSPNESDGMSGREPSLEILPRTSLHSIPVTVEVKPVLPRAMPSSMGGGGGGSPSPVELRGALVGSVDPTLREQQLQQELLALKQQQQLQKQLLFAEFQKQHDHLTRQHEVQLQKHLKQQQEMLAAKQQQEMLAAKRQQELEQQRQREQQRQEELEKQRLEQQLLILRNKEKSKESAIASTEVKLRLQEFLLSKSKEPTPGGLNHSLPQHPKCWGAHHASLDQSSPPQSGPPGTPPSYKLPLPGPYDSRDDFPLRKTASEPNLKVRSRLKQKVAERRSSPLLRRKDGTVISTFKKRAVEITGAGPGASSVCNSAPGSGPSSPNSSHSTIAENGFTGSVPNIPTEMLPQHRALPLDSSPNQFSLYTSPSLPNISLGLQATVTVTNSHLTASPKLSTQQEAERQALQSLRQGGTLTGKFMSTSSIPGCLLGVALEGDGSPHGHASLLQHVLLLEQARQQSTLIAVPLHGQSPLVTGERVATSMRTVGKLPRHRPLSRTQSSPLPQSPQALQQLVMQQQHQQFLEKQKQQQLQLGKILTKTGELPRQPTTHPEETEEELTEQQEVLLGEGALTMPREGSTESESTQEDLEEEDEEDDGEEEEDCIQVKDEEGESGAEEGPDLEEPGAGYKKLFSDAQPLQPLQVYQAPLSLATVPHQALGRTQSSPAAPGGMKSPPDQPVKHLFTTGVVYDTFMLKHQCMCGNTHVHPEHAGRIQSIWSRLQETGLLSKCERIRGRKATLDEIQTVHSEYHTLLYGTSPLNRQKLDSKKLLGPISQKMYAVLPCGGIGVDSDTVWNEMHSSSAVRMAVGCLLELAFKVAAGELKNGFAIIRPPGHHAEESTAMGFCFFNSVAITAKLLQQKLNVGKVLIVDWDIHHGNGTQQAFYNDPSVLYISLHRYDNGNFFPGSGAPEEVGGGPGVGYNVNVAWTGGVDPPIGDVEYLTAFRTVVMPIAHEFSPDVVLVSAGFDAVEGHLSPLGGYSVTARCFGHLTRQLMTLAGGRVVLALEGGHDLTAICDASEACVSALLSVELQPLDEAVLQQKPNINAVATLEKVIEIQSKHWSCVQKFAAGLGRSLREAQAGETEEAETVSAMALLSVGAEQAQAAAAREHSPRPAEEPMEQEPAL
Sequence of HDAC10 (Q969S8 whole entry): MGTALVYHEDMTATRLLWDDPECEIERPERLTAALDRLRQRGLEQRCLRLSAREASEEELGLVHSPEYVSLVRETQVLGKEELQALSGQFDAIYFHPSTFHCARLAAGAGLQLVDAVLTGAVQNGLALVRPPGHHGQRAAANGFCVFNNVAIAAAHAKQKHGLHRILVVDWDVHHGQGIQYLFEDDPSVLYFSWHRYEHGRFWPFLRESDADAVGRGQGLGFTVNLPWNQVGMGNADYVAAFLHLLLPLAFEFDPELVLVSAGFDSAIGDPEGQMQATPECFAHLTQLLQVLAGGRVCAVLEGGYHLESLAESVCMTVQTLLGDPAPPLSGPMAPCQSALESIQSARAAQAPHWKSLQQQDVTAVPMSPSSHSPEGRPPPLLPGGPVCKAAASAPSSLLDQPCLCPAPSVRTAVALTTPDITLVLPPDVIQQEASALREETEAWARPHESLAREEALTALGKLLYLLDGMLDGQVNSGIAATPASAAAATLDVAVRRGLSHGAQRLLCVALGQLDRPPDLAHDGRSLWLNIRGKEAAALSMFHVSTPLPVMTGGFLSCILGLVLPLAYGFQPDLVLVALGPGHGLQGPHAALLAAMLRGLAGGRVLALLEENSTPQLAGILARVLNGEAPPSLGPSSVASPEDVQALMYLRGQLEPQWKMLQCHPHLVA
Sequence of HDAC2 (Q92769 whole entry): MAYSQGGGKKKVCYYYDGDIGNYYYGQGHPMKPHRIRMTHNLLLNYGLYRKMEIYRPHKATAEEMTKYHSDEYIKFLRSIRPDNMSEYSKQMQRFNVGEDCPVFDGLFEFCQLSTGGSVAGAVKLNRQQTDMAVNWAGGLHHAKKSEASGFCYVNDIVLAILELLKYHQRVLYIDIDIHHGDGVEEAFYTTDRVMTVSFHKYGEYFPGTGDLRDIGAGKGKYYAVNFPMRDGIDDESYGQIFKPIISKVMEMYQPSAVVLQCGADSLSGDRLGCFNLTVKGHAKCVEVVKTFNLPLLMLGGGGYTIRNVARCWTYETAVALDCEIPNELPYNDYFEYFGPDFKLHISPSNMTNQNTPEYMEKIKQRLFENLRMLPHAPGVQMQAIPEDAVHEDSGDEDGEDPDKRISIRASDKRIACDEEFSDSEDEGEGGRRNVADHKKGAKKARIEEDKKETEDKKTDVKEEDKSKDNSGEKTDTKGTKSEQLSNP
Sequence of HDAC7 (Q8WUI4 whole entry): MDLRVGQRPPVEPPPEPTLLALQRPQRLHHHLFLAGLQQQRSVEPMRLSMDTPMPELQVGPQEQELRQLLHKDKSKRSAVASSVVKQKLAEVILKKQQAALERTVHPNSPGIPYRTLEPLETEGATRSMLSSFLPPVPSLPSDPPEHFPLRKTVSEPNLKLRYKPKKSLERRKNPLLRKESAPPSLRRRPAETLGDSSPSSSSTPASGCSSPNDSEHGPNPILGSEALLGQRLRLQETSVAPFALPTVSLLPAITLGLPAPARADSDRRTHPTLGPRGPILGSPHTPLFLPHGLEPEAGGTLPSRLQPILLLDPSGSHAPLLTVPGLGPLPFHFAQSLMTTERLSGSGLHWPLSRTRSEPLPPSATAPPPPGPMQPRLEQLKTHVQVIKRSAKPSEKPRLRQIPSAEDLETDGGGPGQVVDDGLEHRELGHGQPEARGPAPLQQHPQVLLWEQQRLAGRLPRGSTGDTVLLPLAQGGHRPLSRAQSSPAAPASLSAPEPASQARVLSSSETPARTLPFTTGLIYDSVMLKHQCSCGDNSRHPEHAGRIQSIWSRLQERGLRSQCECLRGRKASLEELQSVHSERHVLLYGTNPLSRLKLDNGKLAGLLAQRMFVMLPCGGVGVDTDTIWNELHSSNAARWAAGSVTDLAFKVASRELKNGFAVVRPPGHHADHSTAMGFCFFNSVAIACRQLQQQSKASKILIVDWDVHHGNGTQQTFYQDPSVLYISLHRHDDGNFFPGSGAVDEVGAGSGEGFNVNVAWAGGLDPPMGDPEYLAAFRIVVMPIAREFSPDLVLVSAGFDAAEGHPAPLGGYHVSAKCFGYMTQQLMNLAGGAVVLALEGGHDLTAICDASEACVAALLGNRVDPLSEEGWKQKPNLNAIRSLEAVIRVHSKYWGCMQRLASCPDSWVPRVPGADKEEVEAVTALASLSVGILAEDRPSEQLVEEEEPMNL
Sequence of HDAC1 (Q13547 whole entry): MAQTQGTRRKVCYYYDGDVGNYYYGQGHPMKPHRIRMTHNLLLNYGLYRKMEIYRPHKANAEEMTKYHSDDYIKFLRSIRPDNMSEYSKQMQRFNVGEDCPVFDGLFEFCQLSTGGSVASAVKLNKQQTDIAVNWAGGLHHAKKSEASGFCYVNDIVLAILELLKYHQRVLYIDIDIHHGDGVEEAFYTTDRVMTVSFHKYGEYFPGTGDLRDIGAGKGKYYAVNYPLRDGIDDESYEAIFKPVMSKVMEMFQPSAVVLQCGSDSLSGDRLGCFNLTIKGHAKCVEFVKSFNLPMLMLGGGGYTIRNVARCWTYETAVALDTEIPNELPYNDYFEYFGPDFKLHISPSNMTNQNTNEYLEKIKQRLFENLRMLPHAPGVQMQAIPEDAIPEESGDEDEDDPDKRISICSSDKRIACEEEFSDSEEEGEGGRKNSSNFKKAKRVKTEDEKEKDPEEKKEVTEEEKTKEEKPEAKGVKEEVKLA
Sequence of HDAC9 (Q9UKV0 whole entry): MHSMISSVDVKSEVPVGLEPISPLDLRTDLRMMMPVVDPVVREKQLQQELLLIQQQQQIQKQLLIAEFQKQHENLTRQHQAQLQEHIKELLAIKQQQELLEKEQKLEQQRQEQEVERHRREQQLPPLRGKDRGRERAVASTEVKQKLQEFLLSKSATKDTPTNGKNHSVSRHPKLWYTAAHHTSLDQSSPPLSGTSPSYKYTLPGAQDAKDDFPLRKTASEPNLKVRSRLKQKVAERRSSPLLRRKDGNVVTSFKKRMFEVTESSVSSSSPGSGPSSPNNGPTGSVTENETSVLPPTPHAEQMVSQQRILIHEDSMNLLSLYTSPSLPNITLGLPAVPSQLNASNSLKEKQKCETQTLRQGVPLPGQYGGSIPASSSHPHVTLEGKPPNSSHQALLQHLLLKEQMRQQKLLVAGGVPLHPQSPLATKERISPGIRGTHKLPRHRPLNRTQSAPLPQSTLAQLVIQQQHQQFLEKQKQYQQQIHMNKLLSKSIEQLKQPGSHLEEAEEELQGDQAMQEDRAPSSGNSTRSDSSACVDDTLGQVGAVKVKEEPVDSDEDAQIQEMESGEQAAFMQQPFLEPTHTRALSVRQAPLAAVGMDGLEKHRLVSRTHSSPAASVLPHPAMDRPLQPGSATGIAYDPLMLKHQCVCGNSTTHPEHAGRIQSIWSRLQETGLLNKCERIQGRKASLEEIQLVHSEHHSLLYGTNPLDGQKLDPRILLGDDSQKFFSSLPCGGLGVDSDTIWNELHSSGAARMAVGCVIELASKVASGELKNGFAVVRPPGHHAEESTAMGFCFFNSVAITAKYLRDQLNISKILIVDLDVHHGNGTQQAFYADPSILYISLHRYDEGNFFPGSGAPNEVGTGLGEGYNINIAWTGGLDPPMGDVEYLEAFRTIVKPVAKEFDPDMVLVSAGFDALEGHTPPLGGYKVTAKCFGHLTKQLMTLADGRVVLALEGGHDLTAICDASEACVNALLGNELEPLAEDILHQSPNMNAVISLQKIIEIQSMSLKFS

For orientation: IC50 means the concentration at which inhibition is half-maximal. As to `O=C(NO)c1cccc(Nc2nc3cc(Cl)c(Cl)cc3o2)c1` [HDTK010, 3-((5,6-dichlorobenzo[d]oxazol-2-yl)amino)-N-hydroxybenzamide], the IC50 (at HDAC1; on HDAC10; on HDAC2; in assay [1]; on HDAC4; at HDAC5) was greater than 10 µM throughout. Also, the IC50 on HDAC6 is 0.5 to 1 µM; on HDAC7, 5 to 10 µM; at HDAC8, 0.5 to 1 µM; at HDAC9, greater than 10 µM; on HDAC11, 0.001 to 0.005 µM. Also, at HDAC11, the “selectivity over HDACs 1-10” value is given as greater than 200 fold. Besides, the “growth of stem-like cancer cells (sphere formation)” value in assay [2] and in assay [3] was “prevented growth” in each case. Also, the “cell viability, combination with the Smoothened inhibitors” value with A549 cells and in the assay on NCI-H2170 cells was “decreased cell viability” throughout.

Turning to `O=C(NO)c1cccc2c1C[C@]1(CCN(Cc3ccc(Cl)c(C(F)(F)F)c3)C1=O)C2` [HDTK054, (S)-1′-(4-chloro-3-(trifluoromethyl)benzyl)-N-hydroxy-2′-oxo-1,3-dihydrospiro[indene-2,3′-pyrrolidine]-4-carboxamide], the IC50 (on HDAC1; on HDAC10; at HDAC2; in assay [1]; on HDAC4; on HDAC5) was greater than 10 µM in each case. Besides, the IC50 is greater than 10 µM at HDAC6; greater than 10 µM at HDAC7; 5 to 10 µM at HDAC8; greater than 10 µM on HDAC9; 0.01 to 0.05 µM at HDAC11. Further, at HDAC11, the “selectivity over HDACs 1-10” value is greater than 200 fold. For the same compound, the “growth of stem-like cancer cells (sphere formation)” value in assay [2] and in assay [3] was “prevented growth” throughout. The “cell viability, combination with the Smoothened inhibitors” value in the assay with A549 cells and in the assay with NCI-H2170 cells was “decreased cell viability” each time.
